Laboratory results: patent publication US9066948B2, “Oxadiazolo[3,2-a]pyrimidines and thiadiazolo[3,2-a]pyrimidines” (THE UNITED STATES OF AMERICA AS REPRESENTED BY THE …, priority 2010, dated 2015)
“And” between values parts separate entries of the source, which are not always exact repeats. Identical values can stand only once. Like-named read-outs stand apart in the source and are kept apart here.

How the values were obtained:
purified αIIbβ3 = biological target: T1, purified αIIbβ3 (Homo sapiens, UniProt P05106+P08514); assay: Extension of purified αIIbβ3 in nanodiscs by negative staining electron microscopy; details: concentrations up to 10 μM
T1 construct: αIIbβ3 is purified from outdated single donor platelet concentrates obtained from the New York Blood Center; tissue New York Blood Center; host or cells: outdated single donor platelet concentrates
Experimental: In brief, the His-tagged membrane scaffold protein is prepared as a recombinant protein in E. coli and purified by Nickel affinity chromatography and anion exchange chromatography. Final assembly consists of solubilizing an equimolar mixture of 1,2-dimyristoyl-sn-glycero-3-phosphocholine and 1,2-dimyristoyl-sn-glycero-3-phospho-(1′-rac-glycerol) in octylglucoside and cholate and then adding the purified αIIbβ3. The detergents are removed with macroporous polymeric beads (Bio-Bead SM-2) and then the αIIbβ3 nanodiscs are separated from the empty nanodiscs by gel filtration.
αIIbβ3 nanodiscs are treated with eptifibatide, tirofiban, 2-ethyl-7-(piperazin-1-yl)-5H-[1,3,4]thiadiazolo-[3,2-a]pyrimidin-5-one of U.S. Ser. No. 12/514,286, or the compound of Example 27 of the current invention for 1 hour at room temperature at concentrations up to 100 μM for 2-ethyl-7-(piperazin-1-yl)-5H-[1,3,4]thiadiazolo-[3,2-a]pyrimidin-5-one (a compound claimed in U.S. Ser. No. 12/514,286) and at concentrations up to 10 μM for 2-amino-N-(3-(5-oxo-7-(piperazin-1-yl)-5H-[1,3,4]thiadiazolo[3,2-a]pyrimidin-2-yl)phenyl)acetamide of Example 27. Samples are loaded onto carbon-coated copper grids that are glow-discharged by a carbon coating unit (Edwards; Crowley, UK), and then stained with 2% uranyl acetate, followed by drying. Imaging of αIIbβ3 nanodiscs is performed using a JOEL JEM 100CX transmission electron microscope (Jeol Ltd; Tokyo, Japan) at 80 kV and magnifications of 33,000× and 50,000×. Individual nanodiscs containing αIIbβ3 are manually selected for analysis using Image J (NIH, Bethesda, Md.). The distance from the bottom of the nanodisc to the height of the αIIbβ3 complex (nanodisc-integrin length; NIL) is measured as an indicator of integrin extension. The frequency distribution of NIL values is then analyzed for untreated αIIbβ3 nanodiscs and αIIbβ3 nanodiscs in the presence of different compounds.

rat platelets = assay: ADP-induced platelet aggregation, rat PRP (Example 45); assay type: cell-based; details: 1 μM
Experimental: (§1) Blood may be drawn via cardiac puncture from anesthetized Sprague Dawley rats (Taconic, Hudson, N.Y.), WT C57B1/6 mice (Jackson Laboratories, Bar Harbor, Me.), and mice expressing hαIIb/mβ3 and diluted 1:1 with a mixture of 4 parts 0.165 […], pH 7.4 containing 2 mM CaCl2 and 1 mM MgCl2. Blood from consenting human volunteers is obtained from a peripheral vein using a 19 gauge needle and anticoagulated with 1:10 vol 3.8% sodium citrate. Platelet-rich plasma (PRP) may be isolated by centrifugation at 22° C. at 350 g for 10 minutes (rats); 250 g for 2.5 minutes (mice); or 650 g for 4 minutes (human). Mouse PRP samples may be adjusted to 400,000 platelets/μl with the buffer used for dilution and human PRP may be adjusted to 300,000 platelets/μl with platelet-poor plasma. […] Platelet aggregation may be induced by adding to PRP adenosine diphosphate (ADP) at 30 μM (rats and WT mice), 20 or 30 μM (hαIIb/mβ3 mice), or 5 μM (humans), and light transmission may be measured over time in an aggregometer (Kowa AG-10E, Tokyo, Japan) with stirring. Percent inhibition may be calculated by comparing the initial slope of untreated samples to the samples treated with the Compounds of the Invention.

αIIbβ3 = biological target: T2, αIIbβ3 (Homo sapiens, UniProt P05106+P08514); assay: Induction of ligand-induced binding site (LIBS) epitopes, flow cytometry of washed platelets; assay type: cell-based; details: eptifibatide 10 μM = 100%, Example 27 at 100 μM
T2 construct: Washed platelets are prepared in HBMT containing 2 mM CaCl2/1 mM MgCl2; endogenous in cells; host or cells: washed platelets
Experimental: Washed platelets are prepared in HBMT containing 2 mM CaCl2/1 mM MgCl2. […] Fluorescently labeled monoclonal antibodies (PMI-1, LIBS-1, AP5, or 10E5; Alexa-488 conjugated; Invitrogen) are then added (20 μL, final concentration: 5 μg/mL) and incubated for 30 minutes at 22° C. in the dark, after which samples are diluted 1:10 in HBMT with CaCl2/MgCl2 for analysis by flow cytometry (FACSCalibur; Becton Dickinson, Franklin Lakes, N.J.). Antibody binding is reported as the geometric mean fluorescence intensity; nonspecific binding is determined by adding a 50-fold excess of unlabeled antibody before adding the labeled antibody. The net normalized fluorescence intensity in the presence of eptifibatide (10 μM, 30 min incubation at 22° C.) is assigned the value of 100%

WT mouse platelets = assay: ADP-induced platelet aggregation, mouse PRP (Example 45); assay type: cell-based
Experimental: as §1

platelets = assay: Platelet aggregation assay: ADP-induced, platelet-rich plasma; assay type: cell-based, human; details: for IC50: Homo sapiens, Platelet, n=4
Experimental: […] After 30 seconds in the aggregometer (Kowa AF-10E; Tokyo, Japan) at 37° C. with stirring, ADP (5-20 μM) is added to induce aggregation and the light transmittance is measured for 8 minutes. The initial slopes of aggregation in the presence of different concentrations of the Compound being tested are used to generate an IC50.

T2 sequence (P08514 32-887 limits assumed): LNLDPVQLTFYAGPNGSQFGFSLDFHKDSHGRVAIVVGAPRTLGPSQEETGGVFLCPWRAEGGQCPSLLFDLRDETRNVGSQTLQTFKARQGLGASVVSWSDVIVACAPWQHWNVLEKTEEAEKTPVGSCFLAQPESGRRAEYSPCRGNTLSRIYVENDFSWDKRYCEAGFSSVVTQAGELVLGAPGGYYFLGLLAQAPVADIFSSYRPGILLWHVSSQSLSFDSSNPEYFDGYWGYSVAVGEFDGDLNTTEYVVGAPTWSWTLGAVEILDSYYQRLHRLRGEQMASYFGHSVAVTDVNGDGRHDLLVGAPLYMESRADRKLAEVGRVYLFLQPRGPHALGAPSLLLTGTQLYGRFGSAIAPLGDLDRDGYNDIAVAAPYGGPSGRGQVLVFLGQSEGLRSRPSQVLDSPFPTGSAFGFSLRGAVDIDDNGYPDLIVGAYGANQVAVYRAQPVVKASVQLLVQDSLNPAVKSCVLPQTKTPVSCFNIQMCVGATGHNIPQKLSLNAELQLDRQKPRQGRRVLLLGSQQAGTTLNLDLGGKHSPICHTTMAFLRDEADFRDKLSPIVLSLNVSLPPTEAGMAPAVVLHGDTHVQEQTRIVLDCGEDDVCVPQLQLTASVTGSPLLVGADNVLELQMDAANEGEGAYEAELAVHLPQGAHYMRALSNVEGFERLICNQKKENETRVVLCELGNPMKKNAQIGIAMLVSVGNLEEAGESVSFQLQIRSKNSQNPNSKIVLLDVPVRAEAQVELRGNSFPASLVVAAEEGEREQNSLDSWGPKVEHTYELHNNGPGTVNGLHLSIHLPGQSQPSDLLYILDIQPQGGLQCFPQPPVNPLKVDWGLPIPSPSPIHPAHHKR
T2 sequence (P08514 891-1039 partner limits assumed): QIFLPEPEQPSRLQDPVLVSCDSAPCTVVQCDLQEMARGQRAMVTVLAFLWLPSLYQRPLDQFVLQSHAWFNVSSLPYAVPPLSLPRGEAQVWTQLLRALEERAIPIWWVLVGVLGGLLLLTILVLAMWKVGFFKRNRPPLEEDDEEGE
T2 sequence (P05106 27-788): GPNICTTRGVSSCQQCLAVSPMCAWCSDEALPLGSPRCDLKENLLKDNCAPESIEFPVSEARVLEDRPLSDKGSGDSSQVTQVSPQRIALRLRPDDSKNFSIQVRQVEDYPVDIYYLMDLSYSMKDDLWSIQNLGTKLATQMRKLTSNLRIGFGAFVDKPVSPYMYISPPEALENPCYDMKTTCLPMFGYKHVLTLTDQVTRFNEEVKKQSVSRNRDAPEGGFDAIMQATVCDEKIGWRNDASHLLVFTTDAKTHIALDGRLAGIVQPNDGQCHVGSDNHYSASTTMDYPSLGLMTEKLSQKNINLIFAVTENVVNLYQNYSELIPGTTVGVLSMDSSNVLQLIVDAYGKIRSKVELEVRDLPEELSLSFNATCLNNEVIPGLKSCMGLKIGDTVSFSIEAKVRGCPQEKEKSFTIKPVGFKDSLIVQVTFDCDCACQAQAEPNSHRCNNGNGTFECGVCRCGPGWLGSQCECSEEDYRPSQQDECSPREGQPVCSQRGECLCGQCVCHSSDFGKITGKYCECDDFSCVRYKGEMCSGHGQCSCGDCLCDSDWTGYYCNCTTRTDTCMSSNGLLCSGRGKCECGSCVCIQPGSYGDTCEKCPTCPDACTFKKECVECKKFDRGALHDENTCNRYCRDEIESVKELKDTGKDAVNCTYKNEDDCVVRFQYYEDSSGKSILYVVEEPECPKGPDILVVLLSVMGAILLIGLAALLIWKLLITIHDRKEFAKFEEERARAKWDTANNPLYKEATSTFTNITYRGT
T1 sequence (P08514 32-887 limits assumed): as the sequence (P08514 32-887 limits assumed) above
T1 sequence (P08514 891-1039 partner limits assumed): as the sequence (P08514 891-1039 partner limits assumed) above
T1 sequence (P05106 27-788): as the sequence (P05106 27-788) above

NCC(=O)Nc1cccc(-c2nn3c(=O)cc(N4CCNCC4)nc3s2)c1 [Example 27, 2-amino-N-(3-(5-oxo-7-(piperazin-1-yl)-5H-[1,3,4]thiadiazolo[3,2-a]pyrimidin-2-yl)phenyl)acetamide]
shift of nanodisc-integrin length (NIL) values / receptor extension (purified αIIbβ3): do not induce receptor extension | inhibition of rat platelet aggregation induced by ADP (rat platelets): does not inhibit either mouse or rat platelet aggregation | AP5 binding, % of the amount in the presence of eptifibatide (αIIbβ3): 18±5% and 18% | LIBS1 binding after 30 min, % of the amount in the presence of eptifibatide (αIIbβ3): 21±3% | PMI-1 binding, % of the amount bound by platelets treated with eptifibatide (αIIbβ3): 82±13% | selectivity for human compared to mouse or rat αIIbβ3 (WT mouse platelets): selective for human WIND compared to mouse or rat αIIbβ3 | inhibition of mouse platelet aggregation induced by ADP (WT mouse platelets; 1 μM): does not inhibit either mouse or rat platelet aggregation | potency in inhibiting platelet aggregation relative to 2-ethyl-7-(piperazin-1-yl)-5H-[1,3,4]thiadiazolo-[3,2-a]pyrimidin-5-one (platelets): more than one hundred-fold more potent | IC50 (platelets; PPACK instead of citrate, read-out: IC50, ADP-induced platelet aggregation with PPACK as anticoagulant): 220 nM | IC50 (platelets; citrate anticoagulant, read-out: IC50, ADP-induced platelet aggregation of citrated PRP): 90 ± 20 nM | IC50 with PPACK relative to citrate (platelets; PPACK vs citrate): ~3 fold
